Laboratory results taken from ChEMBL document CHEMBL1143409, “Efflux-related resistance to norfloxacin, dyes, and biocides in bloodstream isolates of Staphylococcus aureus” (2007).
In brackets after ≈: the same amount, converted by molar mass.

Experiments:
[1] = test system: Staphylococcus aureus; experiment: Inhibition of multidrug-resistant efflux pump in methicillin-resistant Staphylococcus aureus effluxing isolate assessed as fold reduction of tetraphenylphosphonium bromide MIC at 10 ug/ml by microdilution method; assay type: functional
[2] = test system: Staphylococcus aureus; experiment: Antimicrobial activity against methicillin-resistant Staphylococcus aureus effluxing isolate; assay type: functional
[3] = test system: Staphylococcus aureus; experiment: Inhibition of multidrug-resistant efflux pump in methicillin-resistant Staphylococcus aureus effluxing isolate assessed as fold reduction of acriflavine MIC at 10 ug/ml by microdilution method; assay type: functional
[4] = test system: Staphylococcus aureus; experiment: Inhibition of multidrug-resistant efflux pump in methicillin-resistant Staphylococcus aureus effluxing isolate assessed as fold reduction of citramide MIC at 10 ug/ml by microdilution method; assay type: functional, organism-based
[5] = test system: Staphylococcus aureus; experiment: Inhibition of multidrug-resistant efflux pump in methicillin-resistant Staphylococcus aureus effluxing isolate assessed as fold reduction of Norfloxacin MIC at 10 ug/ml by microdilution method; assay type: functional
[6] = test system: Staphylococcus aureus; experiment: Inhibition of multidrug-resistant efflux pump in methicillin-resistant Staphylococcus aureus effluxing isolate assessed as fold reduction of ethidium-bromide MIC at 10 ug/ml by microdilution method; assay type: functional
[7] = test system: Staphylococcus aureus; experiment: Inhibition of multidrug-resistant efflux pump in methicillin-resistant Staphylococcus aureus effluxing isolate assessed as fold reduction of dequalinium MIC at 10 ug/ml by microdilution method; assay type: functional
[8] = test system: Staphylococcus aureus; experiment: Inhibition of multidrug-resistant efflux pump in methicillin-resistant Staphylococcus aureus effluxing isolate assessed as fold reduction of chlorehexidin MIC at 10 ug/ml by microdilution method; assay type: functional

In the case of `[Br-].c1ccc([P+](c2ccccc2)(c2ccccc2)c2ccccc2)cc1` [TETRAPHENYLPHOSPHONIUM BROMIDE], the “fold change (FC)” value [1] is reported as 4, the MIC50 [2] is reported as 25 µg/mL and the MIC90 [2] is reported as 50 µg/mL.
With `C[n+]1c2cc(N)ccc2cc2ccc(N)cc21.[Cl-]` [EUFLAVINE] the “fold change (FC)” value [3] was 4, the MIC50 [2] was 12.5 µg/mL and the MIC90 [2] was 50 µg/mL.
For CETRIMIDE, the fold change (FC) [4] was 4, the MIC50 [2] was 0.63 µg/mL and the MIC90 [2] was 1.25 µg/mL.
With `CCn1cc(C(=O)O)c(=O)c2cc(F)c(N3CCNCC3)cc21` [NORFLOXACIN] the “fold change (FC)” value [5] was 4, the MIC50 [2] was 12.5 µg/mL (≈ 39.1 µM) and the MIC90 [2] was > 100 µg/mL.
For `CC[n+]1c(-c2ccccc2)c2cc(N)ccc2c2ccc(N)cc21.[Br-]` [HOMIDIUM BROMIDE], the MIC50 [2] was 6.25 µg/mL, the MIC90 [2] was 25 µg/mL and the “fold change (FC)” value [6] was 8.
In the case of `Cc1cc(N)c2ccccc2[n+]1CCCCCCCCCC[n+]1c(C)cc(N)c2ccccc21.[Cl-].[Cl-]` [DEQUALINIUM CHLORIDE], the “fold change (FC)” value [7] is reported as 4, the MIC50 [2] is reported as 1.25 µg/mL and the MIC90 [2] is reported as 5 µg/mL.
For `N=C(NCCCCCCNC(=N)NC(=N)Nc1ccc(Cl)cc1)NC(=N)Nc1ccc(Cl)cc1` [CHLORHEXIDINE], the MIC50 [2] was 0.31 µg/mL (≈ 0.613 µM), the MIC90 [2] was 0.63 µg/mL (≈ 1.25 µM) and the “fold change (FC)” value [8] was 8.
